Laboratory results published in patent publication CN109762015A, “一种阿维菌素B2a磷酸化修饰物及其制备方法和应用” (HEBEI MEIHE PHARMACEUTICAL Co Ltd, priority 2019, dated 2019).

Columns and labels:
[1] = tested on: other diseases and pests and non-target organisms (其他病虫害及非靶标生物); assay: Safety evaluation: effect on other diseases/pests and non-target organisms (Example 7); assay type: in vivo; conditions: 0.25 g/plant, hole application at transplanting
[2] = tested on: plants (植株); conditions: background statement; cited from earlier work
[3] = tested on: watermelon (西瓜); assay: Watermelon yield after treatment (Example 8); assay type: in vivo; conditions: 0.25 g/plant at transplanting
[4] = tested on: root-knot nematode of watermelon (西瓜根结线虫); assay: Field trial: control of watermelon root-knot nematode (Example 7); assay type: in vivo; conditions: 0.25 g/plant, hole application at transplanting; assessed 2 d before harvest, five-point sampling, 10 plants per field

Structure (SMILES): CC[C@H](C)[C@H]1O[C@@]2(C[C@@H]3C[C@@H](C/C=C(\C)[C@@H](O[C@H]4C[C@H](OC)[C@@H](O[C@H]5C[C@H](OC)[C@@H](O)[C@H](C)O5)[C@H](C)O4)[C@@H](C)/C=C/C=C4\CO[C@@H]5[C@H](O)C(C)=C[C@@H](C(=O)O3)[C@]45O)O2)C[C@H](O)[C@@H]1C [阿维菌素B2a]
- effect on other diseases/pests and non-target organisms [1]: 无不良影响
- phytotoxicity in individual plants [2]: 会使个别植株出现黄化、烧根等现象
- single fruit weight ([3]; 3 watermelons per field, blank field 5.98): 7.01 kg
- converted yield ([3]; converted from weighing 3 watermelons per field, blank field 38967.4): 47784.9 kg·hm-2
- growth rate relative to blank field (yield increase) ([3]; versus blank field): 22.62%
- control effect [4]: 83.32%
